For this series the following is noted: buffer; pH 7.4; 6.0 h; 150.0 µM.

The kinetic solubility is the concentration staying in solution when a stock, usually in DMSO, is diluted into the medium.

Converted amounts (≈) assume the structure as drawn.

The molecule `Cc1cccc(NC(=S)N2CCN(c3cccc(C(F)(F)F)c3)CC2)c1` displayed a solubility (kinetic) of 1.59 µg/mL (≈ 4.18 µM).
`COc1cc2nccc(Oc3ccc(NC(=O)C4(C(=O)Nc5ccc(F)cc5)CC4)cc3)c2cc1OC`: the kinetic solubility was less than 1 µg/mL.
For the molecule `O=C(Cc1ccc(Cl)c(Cl)c1)Nc1ccc(S(=O)(=O)Nc2cccc(O)c2)cc1`, the kinetic solubility is less than 1 µg/mL.
For the molecule `O=C(O)c1ccc(O)c2ncc(N3CCCN(CCc4cccc5ccccc45)CC3)cc12`, the solubility (kinetic) came out at 21.4 µg/mL (≈ 48.4 µM).
`Oc1ccccc1CN1CCNc2cc(Nc3ccccc3)ncc2C1` came in with a kinetic solubility of 24.3 µg/mL (≈ 70.1 µM).
As for `Fc1cc(Nc2nc(-c3ccncc3)nc3ccccc23)ccc1-c1cn[nH]c1`, the solubility (kinetic) was less than 1 µg/mL.
Turning to `NC(=O)C1CCN(c2ncc(-c3ccc(Br)cc3)s2)CC1`, the kinetic solubility stood at 1.62 µg/mL (≈ 4.42 µM).
The molecule `O=[S+]([O-])(Nc1ccccc1)c1ccc(NCc2ccc(Cl)cc2O)cc1` yielded a solubility (kinetic) of 2.64 µg/mL (≈ 6.79 µM).
Under `O=C(c1cnc(N2CCCCC2)c2ccccc12)N1CCN(c2ccccn2)CC1` stands more than 59 µg/mL; under `O=C(CCCCn1c(=O)[nH]c2ccsc2c1=O)N1CCN(c2cccc(Cl)c2)CC1`, 11.9 µg/mL (≈ 26.7 µM); under `COc1cccc2c1CCCC2CCCN1CCN(C2CCCCC2)CC1` (stereo not drawn), more than 55 µg/mL.
Consider `Cc1cc(C)c(CNC(=O)c2nc(-c3cccc(CO)c3)cc3c2ccn3C)c(=O)[nH]1`, for which the solubility (kinetic) amounted to 24.7 µg/mL (≈ 59.4 µM).
Molecule `CCCCCNc1oc(-c2cccc3ccccc23)nc1C#N` came in with a kinetic solubility of less than 1 µg/mL.
Then `N#Cc1cnc(NS(=O)(=O)c2ccc(NC(=O)Cc3ccc(F)c(Cl)c3)cc2)s1`, with more than 67 µg/mL; and `COc1cccc(-c2cn3c(n2)sc2cc(C(=O)NCCc4ccc(OC)c(OC)c4)ccc23)c1`, with less than 1 µg/mL.
Then `O=[S+]([O-])(Nc1cccc2cccnc12)c1ccc(NCc2ccc(Cl)cc2O)cc1`, with less than 1 µg/mL; and `COc1ccccc1N1CCN(CCN(C(=O)c2ccc(I)cc2)c2ccccn2)CC1`, with 53.8 µg/mL (≈ 99.1 µM); and `Cc1ccc(CCNC(=O)C2CCCN(C(=O)c3cc4sccc4n3C)C2)cc1` (stereo not drawn), with 3.09 µg/mL (≈ 7.55 µM).
Under `CC(C)(C)NS(=O)(=O)c1ccc(-c2ccc3[nH]nc(N)c3c2)cc1` stands more than 51 µg/mL; under `COc1cccc(-n2nc(C(=O)O)cc2-c2ccc(C3CCCCC3)c(Cl)c2)c1`, 15.2 µg/mL (≈ 37.1 µM).
`CCCCOc1ccc(CC(=O)NO)cc1`: the solubility (kinetic) was found to be 13.6 µg/mL (≈ 60.9 µM).
Regarding `CNC(=O)C1CCN(c2nc(-c3ccc(Br)cc3)cs2)CC1`, the kinetic solubility turned out to be 3.67 µg/mL (≈ 9.64 µM).
Then `COc1ccc2c(c1)/C(=C/c1cnc[nH]1)C(=O)N2`, with more than 36 µg/mL; and `CCOc1ccc(C2c3c(oc4ccc(C)cc4c3=O)C(=O)N2CCCN(C)C)cc1` (stereo not drawn), with more than 62 µg/mL; and `CN1CCCN(C(c2ccccc2)c2ccc(Cl)cc2)CC1` (stereo not drawn), with 36.9 µg/mL (≈ 117 µM).
With `O=C(NCCCc1ccccc1)c1cccc(-c2cc(O)c3ncccc3c2)c1`, the kinetic solubility is less than 1 µg/mL.
In turn, `CC1(COc2ccc3c(c2)ncn3-c2ccc3cccc(N4CCC(N)CC4)c3n2)COC1` gave a kinetic solubility of 36.8 µg/mL (≈ 82.9 µM).
For the molecule `Cc1ccc(S(=O)(=O)Nc2cc(Cl)c(Cl)cc2C(=O)Nc2nc(-c3ccccc3)cs2)cc1`, the kinetic solubility is less than 1 µg/mL.
In the case of `CCOC(=O)c1ccc(NC(=O)CSc2nc3c(cc2C#N)N2CCC3CC2)cc1`, the solubility (kinetic) worked out at 1.15 µg/mL (≈ 2.71 µM).
In turn, `COc1ncc(-c2n[nH]c3c2CC(=O)N(c2ccccc2)C3)cn1` registered a solubility (kinetic) of 5.46 µg/mL (≈ 17 µM).
For the molecule `CC(=O)Nc1ccc(C(=O)Nc2ccc3c(c2)N(C2CCCC2)C(=O)c2ccccc2S3)cc1`, the solubility (kinetic) was less than 1 µg/mL.
Take `O=C(Nc1ncc(Cc2ccccc2)s1)c1ccc(-c2cccc([N+](=O)[O-])c2)o1`: the kinetic solubility is less than 1 µg/mL.
Molecule `COc1ccc(Cl)cc1C(=O)Nc1nc(-c2ccccc2)cs1` gave a solubility (kinetic) of less than 1 µg/mL.
Consider `Cn1nnnc1Sc1ncnc2scc(-c3cc4ccccc4o3)c12`, for which the kinetic solubility is less than 1 µg/mL.
`COc1nccc(-c2nc(Nc3ccc(F)c(F)c3)c3ccccc3n2)c1OC` yielded a solubility (kinetic) of less than 1 µg/mL.
`Oc1ccc(-c2nc(C3CC3)nc3c2CCN(CC2CCCCC2)CC3)cc1` gave a solubility (kinetic) of 11.3 µg/mL (≈ 29.9 µM).
In turn, `COc1ccc(-c2nc3ccc(C4=NNC(=O)CC4C)cc3[nH]2)cc1` (stereo not drawn) displayed a kinetic solubility of less than 1 µg/mL.
Consider `O=C(Nc1ccc(Br)cc1)c1ccc(F)c(S(=O)(=O)NC2CCCCCC2)c1`, for which the solubility (kinetic) is less than 1 µg/mL.
In the case of `Cc1ccc(-c2csc(NC(=O)c3ccccc3NS(=O)(=O)c3ccc(C)cc3)n2)cc1`, the solubility (kinetic) is less than 1 µg/mL.
In turn, `O=C(Nc1nc(-c2ccccn2)cs1)c1cccc(-n2cnnn2)c1` yielded a kinetic solubility of 1.1 µg/mL (≈ 3.15 µM).
On to `O=C1Nc2ccc(I)cc2/C1=C/c1cc(Br)c(O)c(Br)c1`, for which the kinetic solubility was less than 1 µg/mL.
With `COc1cc(-c2nc(Nc3ccc(F)c(F)c3)c3ccccc3n2)cc(OC)n1`, the kinetic solubility was less than 1 µg/mL.
On to `CCOC(=O)Nc1ccc(NCc2ccc(F)cc2)nc1N`, for which the solubility (kinetic) was 8.21 µg/mL (≈ 27 µM).
`Cc1cc(C)nc(NC(=S)N2CCN(c3ccc(C(F)(F)F)cc3[N+](=O)[O-])CC2)c1` displayed a kinetic solubility of 6.89 µg/mL (≈ 15.7 µM).
In turn, `Cc1ccc(CC(=O)Nc2nc(-c3ccc4c(c3)CCN4C(=O)c3ccccc3C)c(C)s2)cc1C` registered a solubility (kinetic) of less than 1 µg/mL.
In the case of `COCc1cc(C)nc(SCC(=O)c2ccc(O)c(O)c2)c1C#N`, the solubility (kinetic) was 13.2 µg/mL (≈ 38.2 µM).
`CC(=O)Nc1ccc(NC(=O)C(NS(=O)(=O)c2ccc(Br)s2)c2ccccc2)cc1` (stereo not drawn) returned a solubility (kinetic) of less than 1 µg/mL.
Molecule `Nc1ncnc2c1c(-c1cnc3[nH]ccc3c1)nn2C1CCCC1` registered a kinetic solubility of more than 47 µg/mL.
For the molecule `COc1ccc2[nH]c(S(=O)Cc3ncc(C)c(OC)c3C)nc2n1` (stereo not drawn), the solubility (kinetic) was more than 51 µg/mL.
The molecule `COc1ccccc1-c1nc(NCc2ccc(-c3cccnc3)cc2)c2ccccc2n1` registered a kinetic solubility of less than 1 µg/mL.
In the case of `Cc1ccc(C)c(S(=O)(=O)NCC2CN(Cc3ccccc3)CCO2)c1` (stereo not drawn), the kinetic solubility was more than 55 µg/mL.
With `CCc1cccc(NC(=O)CSc2nc3ccccc3nc2N2CCCCC2)c1`, the kinetic solubility was less than 1 µg/mL.
The molecule `COc1cc2c(Nc3ccc(Br)cc3F)ncnc2cc1OCC1CCN(C)CC1` came in with a solubility (kinetic) of more than 70 µg/mL.
For `Cc1ccc(-c2nnc(Nc3ccc(Br)cc3)c3ccccc23)cc1S(=O)(=O)N1CCN(C)CC1`, the solubility (kinetic) was less than 1 µg/mL.
For the molecule `Cc1ccccc1CN1C2=NCCN2C(=O)C2=C1CCN(Cc1ccccc1)C2`, the solubility (kinetic) was 26.7 µg/mL (≈ 69 µM).
In turn, `O=C(Nc1cccc(Cc2ccccc2)c1)c1ccc(-c2cccc([N+](=O)[O-])c2)o1` showed a solubility (kinetic) of less than 1 µg/mL.
As to `O=[S+]([O-])(Nc1ccccc1)c1ccc(NCc2cccc(Cl)c2F)cc1`, the kinetic solubility is less than 1 µg/mL.
Turning to `Cc1ccc(-c2nn(C(C)(C)C)c3ncnc(N)c23)cc1`, the kinetic solubility came to 2.5 µg/mL (≈ 8.88 µM).
Turning to `CCN(CC)C(=O)c1sc2c(c1C)c(=O)n(Cc1ccccc1)c(=O)n2CC(=O)Nc1ccc(OC)cc1`, the kinetic solubility is less than 1 µg/mL.
The molecule `CC[C@H]1CN2CCc3cc(OC)c(OC)cc3[C@@H]2C[C@@H]1C[C@H]1NCCc2cc(OC)c(OC)cc21` gave a solubility (kinetic) of more than 71 µg/mL.
The molecule `COc1cc2c(cc1OCCCN1CCCC1)N=C(N)C21CCC1` gave a solubility (kinetic) of more than 49 µg/mL.
In turn, `Fc1ccc(Nc2cc(-c3ccccc3)nc(-c3ccncc3)n2)cc1F` displayed a kinetic solubility of less than 1 µg/mL.
In turn, `CC(C)(O)/C=C\C(=O)[C@](C)(O)[C@H]1[C@H](O)C[C@]2(C)[C@@H]3CC=C4[C@@H](C=C(O)C(=O)C4(C)C)[C@]3(C)C(=O)C[C@@]12C` came in with a kinetic solubility of more than 51 µg/mL.
`O=c1cc(N2CCOCC2)oc2c1ccc1ccccc12` showed a kinetic solubility of 16.7 µg/mL (≈ 59.5 µM).
`O=c1cc(-c2ccccc2)oc2cc(O)cc(O)c12` came in with a solubility (kinetic) of less than 1 µg/mL.
Under `CCN1C(=O)c2ccccc2[S@](=O)c2ccc(C(=O)N[C@H](C)c3ccc(Br)cc3)cc21` stands less than 1 µg/mL; under `Cc1ccccc1S(=O)(=O)N1CCc2cc(-c3nc(NC(=O)Cc4ccc5c(c4)OCO5)sc3C)ccc21`, less than 1 µg/mL; under `c1cn2cc(-c3ccc4cn[nH]c4c3)nc(Nc3ccc(N4CCOCC4)cc3)c2n1`, less than 1 µg/mL.
`CC(=O)C1CCN(c2ncc(-c3cccc(N(C)C)c3)s2)CC1`: the solubility (kinetic) was determined as 3.33 µg/mL (≈ 10.1 µM).
Molecule `COc1ccc(-c2nc(-c3c(C)noc3C)cc3c2cc(C)n3CCN(C)C)cc1OC` yielded a kinetic solubility of more than 96 µg/mL.
Regarding `CCOC(=O)c1nn(-c2ccccc2)c(=O)c2c(N)scc12`, the kinetic solubility was determined as 4.02 µg/mL (≈ 12.7 µM).
Under `Cc1cc(N[S+](=O)([O-])c2ccc(NC(=O)Cc3ccc(F)c(F)c3)cc2)no1` stands more than 60 µg/mL; under `NC[C@H](O)c1ccc(O)c(O)c1`, more than 25 µg/mL; under `CN(C)CCNC(=O)c1nc(-c2ccccc2)cc2[nH]ccc12`, 28.3 µg/mL (≈ 91.9 µM).
On to `C#C[C@]1(OC(C)=O)CC[C@H]2[C@@H]3CCC4=C/C(=N/O)CC[C@@H]4[C@H]3CC[C@@]21CC`, for which the kinetic solubility was less than 1 µg/mL.
Under `Cc1ccc(C)c(SC2=NS(=O)(=O)c3ccccc32)c1` stands less than 1 µg/mL; under `Cc1ccc(S(=O)(=O)Nc2cc(C(=O)Nc3nc(-c4ccccc4)cs3)ccc2Cl)cc1`, less than 1 µg/mL; under `COc1cc(NC(=O)Cn2c(=O)oc3cc(S(=O)(=O)N4CCCCCC4)ccc32)cc(OC)c1`, less than 1 µg/mL.
Molecule `CN1CCc2cc3c(cc2C1)OCO3` had a kinetic solubility of more than 28 µg/mL.
The molecule `O=C(Nc1nc(-c2ccccc2)cs1)c1ccncc1NS(=O)(=O)c1cccs1` came in with a kinetic solubility of less than 1 µg/mL.
Under `N#Cc1cnccc1-c1nc(Nc2ccc(F)c(F)c2)c2ccccc2n1` stands less than 1 µg/mL; under `Cc1cccc(-n2cnc3cc(C(=O)N4CCCC(C)C4)ccc32)c1` (stereo not drawn), 26.4 µg/mL (≈ 79.3 µM).
Then `Cc1cccc(-c2cc(NC(=O)c3ccccc3C)n(-c3ccccc3)n2)c1`, with less than 1 µg/mL; and `Cn1nnnc1Sc1ncnc2sc(-c3ccccc3)cc12`, with 0.088 µg/mL (≈ 0.27 µM); and `O=C1CCCC2=C1C(c1ncccc1Br)N=C(Nc1nc3ccccc3o1)N2` (stereo not drawn), with 7.87 µg/mL (≈ 17.9 µM).
Turning to `O=C(NCC1CCOCC1)C1CC(=O)N(c2n[nH]c3cc(Br)ccc23)C1` (stereo not drawn), the solubility (kinetic) came to 25.3 µg/mL (≈ 60.1 µM).
Then `CC(=O)NCc1ccc(-c2csc(Nc3cccc(C)c3)n2)o1`, with 29.8 µg/mL (≈ 91.1 µM).
In turn, `C[C@@]1(C(=O)Nc2ccc(F)nc2)CCCN1c1nc(Nc2cc(C3CC3)[nH]n2)c2cccn2n1` returned a solubility (kinetic) of 31.1 µg/mL (≈ 67.4 µM).

The values above are taken from PubChem BioAssay AID1645848.
